Where “and” joins values, the source holds several entries; their conditions need not be identical. Identical values can stand only once. Counter-ions that a name gives are not always drawn. Like-named read-outs stand apart in the source and are kept apart here.
Key:
polyA.polyT = assay: DNA binding study: increase in thermal melting (ΔTm) of polyA.polyT; settings: increase in thermal melting of polyA.polyT in the presence of compound
Protocol: DNA binding studies with polyA.polyT were carried out using established protocols. See Wilson, W. D., et al., Biochemistry, 32, 4098-4104 (1993).

L-6 rat mycoblast cells = assay: Cell toxicity assay in L-6 rat mycoblast cells; assay type: cell-based; settings: assay for cell toxicity, read-out: L6 Rat Mycoblast Cells IC50
Protocol: (§1) In vitro antiprotozoal activities were measured following established protocols. […] E., et al., Bioorg.

[1] = test system: STIB 900 strain of Trypanosoma brucei rhodesiense; assay: In vivo activity against T. b. r. STIB 900 in a mouse model; settings: for Survival: average days of survival, mice, untreated controls die between day 7 and 8; for Survival / Cures: days 3-6 post-infection; for in vivo activity against T. b. r. (in words) / cure rate compared with pentamidine and furamidine (in words): murine model; for cure rate compared with pentamidine and furamidine (in words): T. b. r. STIB 900; for Cures: number of mice that survive and are parasite free for 60 days, groups of four mice
Protocol: The activities of compounds 6, 8, 14, 16 and 17, against the STIB 900 strain of Trypanosoma brucei rhodesiense (T. b. r.) in a mouse model are shown in Table 2. These values are compared to those of pentamidine and furamidine. Groups of four mice were infected intraperitoneally with […] bloodstream forms of T. b. r. STIB 900 which originates from a patient in Tanzania. On days 3, 4, 5, and 6 post-infection the experimental groups were treated with the drugs either by the intraperitoneal or for prodrugs by the oral route. Usually the highest tolerated dose was used which was determined in a pretoxicological experiment. Parasitemia of the mice was checked daily up to day 14 post-infection and thereafter 2 times per week up to day 60. One group of mice was not treated and acted as control. For relapsing mice, the day of death was recorded and the survival time determined.

Plasmodium falciparum = assay: In vitro antiprotozoal activity against P. f.; assay type: cell-based
Protocol: as §1

[2] = test system: Trypanosoma brucei rhodesiense; assay: In vitro antiprotozoal activity against T. b. r.; assay type: cell-based
Protocol: as §1

Leishmania donovani = assay: In vitro antiprotozoal activity against L. d.; assay type: cell-based; settings: read-out: L.d. C50
Protocol: as §1

[3] = test system: Trypanosoma brucei rhodesiense, Plasmodium falciparum, Leishmania donovani; assay: In vitro antiprotozoal activities, overall statement on prodrugs; assay type: cell-based; settings: absence of the enzymes needed for bioconversion to the active diamidines
Protocol: In vitro antiprotozoal activities were measured following established protocols. See Ismail, M. A., et al., J. Med. Chem., 46, 4761-4769 (2003); Stephens, C. E., et al., Bioorg. Med. Chem. Lett., 13, 2065-2069 (2003) (in vitro assay against Leishmania donovani). The activities of compounds 8, 14, 16, 17, 19, 22, 26a, 26b, 29a, 29b, and 33, 39, and 45 against Trypanosoma brucei riodesiense (T. b. r.), Plasmodium falciparum (P. f.), Leishmania donovani (L. d.), and L-6 rat mycoblast cells (as an assay for cell toxicity) are shown in Table 1. These values are compared to those of pentamidine and furamidine.

[4] = Trypanosoma brucei, RHODESIENSE

| SMILES | melting point [°C] | IC50 (L-6 rat mycoblast cells) [nM] | IC50 (Plasmodium falciparum; Plasmodium falciparum) [nM] | IC50 [2, 4] [nM] | IC50 (Leishmania donovani) [nM] | also measured |
| --- | --- | --- | --- | --- | --- | --- |
| N=C(NO)c1ccc(-c2ccc(-c3ccc(C(=N)NO)o3)o2)nc1 [Compound 13, N-Hydroxy-6-[5′-(N-hydroxyamidino)-2,2′-bifuran-5-yl]-nicotinamidine] | 248 to 250 |  |  |  |  |  |
| CC(=O)O.N=C(N)c1ccc(-c2ccc(-c3ccc(C(=N)N)o3)o2)nc1 [Compound 14, 6-(5′-Amidino-2,2′-bifuran-5-yl)-nicotinamidine acetate salt] |  | 26900 |  |  |  | Δ Tm (polyA.polyT): 7.1 °C; Survival ([1]; ip, 10 mg/kg): >51.25 days; in vivo activity against T. b. r. (in words) [1]: good in vivo activity; cure rate compared with pentamidine and furamidine (in words) [1]: better cure rates than pentamidine and furamidine; Cures ([1]; ip, 10 mg/kg, acetate salt, 10 mg/kg): three mice out of four and 3/4 |
| N=C(N)c1ccc(-c2ccc(-c3ccc(-c4ccc(C(=N)N)cn4)o3)o2)nc1 [Compound 22, 5,5′-Bis-(5-amidino-2-pyridyl)-2,2′-bifuran] |  | 5100 | 29 | 70 | > 100000 |  |
| N=C(N)c1ccc(-c2ccc(-c3ccc(-c4ccc(C(=N)N)cn4)o3)o2)nc1 (as salt: salt) [Compound 22, 5,5′-Bis-(5-amidino-2-pyridyl)-2,2′-bifuran] | > 300 |  |  |  |  |  |
| CONC(=N)c1ccc(-c2ccc(-c3ccc(-c4ccc(C(=N)NOC)cc4)o3)o2)cc1 [Compound 19, 5,5′-Bis-[4-(N-methoxyamidino)phenyl]-2,2′-bifuran] |  | > 133000 | > 7400 | 36000 |  | in vitro activity (in words) [3]: poor in vitro activity |
| N=C(N)c1ccc(-c2ccc(-c3ccc(-c4ccc(C(=N)N)cc4)[se]3)[se]2)cc1 [Compound 29a, 5,5′-Bis-(4-amidinophenyl)-2,2′-biselenophene] | > 300 | 13400 | ≤ 22 | ≤ 26 |  | IC50 (Plasmodium falciparum): 14 nM; IC50 [2]: 26 nM |
| N=C(NO)c1ccc(-c2ccc(-c3ccc(C(=N)NO)o3)o2)cc1 [Compound 6, N-Hydroxy-5′-[4-(N-hydroxyamidino)-phenyl]-2,2′-bifuran-5-carboxamidine] |  |  |  |  |  | in vitro activity (in words) [3]: poor in vitro activity; Survival ([1]; po, 75 mg/kg): 20 days; Cures ([1]; po, 75 mg/kg): 0/4 |
| N/C(=N\O)c1ccc(-c2ccc(-c3ccc(-c4ccc(/C(N)=N\O)cc4)o3)o2)cc1 [Compound 16, 5,5′-bis-(4-N-Hydroxybenzamidine)-2,2′-bifuran] |  | > 182000 | 2960 | 8700 |  | in vitro activity (in words) [3]: poor in vitro activity; Survival ([1]; po, 100 mg/kg): 5.5 days; Cures ([1]; po, 100 mg/kg): 0/4 |
| Cl.N=C(N)c1ccc(-c2ccc(-c3ccc(-c4ccc(C(=N)N)cc4)o3)o2)cc1 [Compound 17, 5,5′-bis-(4-Amidinophenyl)-2,2′-bifuran hydrochloride salt] |  | 10700 | ≤ 22 | 126 | 1000 | IC50 (Plasmodium falciparum; hydrochloride salt): 20 nM; Δ Tm (polyA.polyT): 23.6 °C; Survival ([1]; ip, 10 mg/kg): 24 days; Cures ([1]; ip, 10 mg/kg): 0/4 |
| N=C(N)c1ccc(OCCCCCOc2ccc(C(=N)N)cc2)cc1 [Pentamidine, reference compound] |  |  |  |  | 2000 | Survival ([1]; ip, 20 mg/kg): >42.75 days; Cures ([1]; ip, 20 mg/kg): 0/4 |
| N=C(N)c1ccnc(-c2ccc(-c3ccc(-c4cc(C(=N)N)ccn4)s3)s2)c1 [Compound 26b, 5,5′-Bis-(4-amidino-2-pyridyl)-2,2′-bithiophene] | > 300 | > 159000 | 34 | 36 | > 50000 |  |
| N=C(N)c1ccc2nc(-c3ccc(-c4ccc(C(=N)N)o4)o3)[nH]c2c1 [Compound 45] |  | 41800 |  |  |  | Δ Tm (polyA.polyT): 23.2 °C |
| N=C(N)c1ccc(-c2ccc(-c3ccc(C(=N)N)o3)o2)cc1 [Compound 8, 5′-(4-Amidinophenyl)-2,2′-bifuran-5-carboxamidine] |  | 37800 | 41.5 |  |  | Δ Tm (polyA.polyT): 10.8 °C; Survival ([1]; ip, 20 mg/kg): >45.5 days; in vivo activity against T. b. r. (in words) [1]: good in vivo activity; cure rate compared with pentamidine and furamidine (in words) [1]: better cure rates than pentamidine and furamidine; Cures ([1]; ip, 20 mg/kg): 2/4 |
| N=C(N)c1ccnc(-c2ccc(-c3ccc(-c4cc(C(=N)N)ccn4)[se]3)[se]2)c1 [Compound 29b, 5,5′-Bis-(4-amidino-2-pyridyl)-2,2′-biselenophene] | > 300 | > 144000 | 76 | 153 | 19800 |  |
| N=C(N)c1ccc(-c2ccc(-c3ccc(-c4ccc(C(=N)N)cc4)s3)s2)cc1 [Compound 26a, 5,5′-Bis-(4-amidinophenyl)-2,2′-bithiophene] | > 300 | 89400 | ≤ 22 | ≤ 26 |  | IC50 (Plasmodium falciparum): 22 nM; IC50 [2]: 15 nM |

— US7517893B2, “Bichalcophenes and their prodrugs as antiprotozoal agents” (The University of North Carolina at Chapel Hill, priority 2005, dated 2009)
